Measured values: PubChem BioAssay (NCI)
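Where inhibition never reached the appropriate level, the endpoint shown equals the highest concentration tested. Otherwise, values were interpolated linearly from a five-concentration, 48-hour dose response in 96-well plates. GI50 = concentration required for 50% inhibition of growth. Definition used: TGI = concentration required for complete inhibition of growth.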

Key:
Assay in all cases: NCI tumour cell line growth inhibition, 48 h
DMS 114 small cell lung = test system: DMS 114 small cell lung
RXF-631 renal = test system: RXF-631 renal
786-0 renal = test system: 786-0 renal
HS 578T breast = test system: HS 578T breast
SN12K1 renal = test system: SN12K1 renal
P388/ADR leukemia = test system: P388/ADR leukemia
P388 leukemia = test system: P388 leukemia

| SMILES | TGI (DMS 114 small cell lung) [µM] | TGI (786-0 renal) [µM] | TGI (HS 578T breast) [µM] | further results |
| --- | --- | --- | --- | --- |
| CCC(C)C(=O)c1c(O)c(C/C=C(\C)CCC=C(C)C)c(O)c2c(C(O)CC)cc(=O)oc12 (configuration not stated) | 3.35 | – | – | TGI (RXF-631 renal): 14.2 µM |
| CC[n+]1c(/C=C/c2ccc(N(CCCl)CCCl)cc2)ccc2cc(NC(=O)/C=C/c3ccccc3)ccc21 | 13.8 | 3.22 | 1.25 | – |
| COc1cc(C2c3cc4c(cc3[C@@H](Nc3cccc(C(C)=O)c3)C3COC(=O)[C@H]23)OCO4)cc(OC)c1O (some centres not stated) | 4.77 | – | – | TGI (SN12K1 renal): 4.61 µM; TGI (P388/ADR leukemia): 2.53 µM; TGI (P388 leukemia): 0.254 µM |
| COc1ccc(CC(C)N)cc1 (configuration not stated) | > 100 | > 100 | – | TGI (RXF-631 renal): > 100 µM |
| CCO/N=[N+](\[O-])N(CC)CC | – | – | – | TGI (RXF-631 renal): > 100 µM |
| CC1(C)N=C(N)N=C(N)N1c1cccc(OCCOc2ccc([N+](=O)[O-])cc2)c1 | – | > 100 | > 100 | – |
| CC(C)C[P+](c1ccccc1)(c1ccccc1)c1ccccc1 | – | > 100 | > 100 | – |
| Cc1nc2ccccc2c(=O)[nH]1 | – | > 100 | – | TGI (RXF-631 renal): > 100 µM |
| ClCc1c(Cl)c(Cl)c(Cl)c(CCl)c1Cl | – | – | 5.61 | GI50 (HS 578T breast): 2.15 µM |
| CCOC(=O)/C=C(\C)c1ccc(OC)cc1 | > 100 | – | – | – |
| COc1cc[n+](C)cc1 | > 100 | – | – | TGI (SN12K1 renal): > 100 µM; TGI (P388/ADR leukemia): > 100 µM; TGI (P388 leukemia): > 100 µM |
| NCc1ccc(C(=O)O)cc1 | – | > 100 | – | – |
| C#CC[C@@H]1C[C@]2(C)[C@H]3CC=C4[C@H]5CC(C)(C)CC[C@]5(C(=O)NCCCCN)CC[C@@]4(C)[C@]3(C)CC[C@H]2C(C)(C)[C@H]1OC(C)=O | – | – | 3.71 | GI50 (HS 578T breast): 1.73 µM |
| Brc1ccccc1-c1ncc(-c2ccccc2)o1 | – | – | 41 | – |
| O=[N+]([O-])c1cn[n+]([O-])c2ccccc12 | – | 12.3 | 29.1 | – |
| CN(C)c1ccc(N=Nc2ccccn2)cc1 | – | > 100 | > 100 | – |
| CC(C)(Br)C1(O)CCCN1C(=O)c1ccccc1 (configuration not stated) | – | – | – | TGI (RXF-631 renal): > 100 µM |
| NCc1ccccc1C1CSCSC1 | > 100 | – | – | – |
| COc1ccc(NC(=O)/C(CC2=Nc3ccc([N+](=O)[O-])cc3NC2O)=N\NC(=O)C[N+](C)(C)C)c(OC)c1 (configuration not stated) | – | 68.8 | > 100 | – |
| Cn1c(-c2ccc(/C=N\N3CCN(/N=C/c4ccc(-c5c[n+]6ccccc6n5C)cc4)CC3)cc2)c[n+]2ccccc12 | – | 70.7 | 92.8 | – |
| C=C1C(=O)OC2C1CC(O)/C(C)=C\CCC1(C)OC21 (configuration not stated) | – | > 100 | 67.9 | – |
